Earlier results as cited in patent US20130303628A1, “CURCUMINOID SOLID DISPERSION FORMULATION” (ABBOTT LABORATORIES, priority 2010, published 2013).

Details: acidic and neutral pH

COc1cc(C=CC(=O)CC(=O)C=Cc2ccc(O)c(OC)c2)ccc1O [Curcumin, 1,7-Bis-(4-hydroxy-3-methoxyphenyl)-hepta-1,6-diene-3,5-dione]
solubility in water: practically insoluble
